According to PMC5120204, “Identification of an orally active small-molecule PTHR1 agonist for the treatment of hypoparathyroidism” (Nature Communications, 2016):

Tests used:
hPTHR1-delNT = molecular target: T1, hPTHR1-delNT (Homo sapiens, UniProt Q03431); experiment: cAMP production assay in COS-7 cells expressing hPTHR1-delNT; format: cell-based; settings: COS-7 cells transfected with hPTHR1-delNT
T1 construct: HA + tetraglycine linker (YPYDVPDYA-GGGG); expressed in transfected cells; host or cells: COS-7 (transient)
T1 sequence (Q03431 with tags, fused parts or gaps): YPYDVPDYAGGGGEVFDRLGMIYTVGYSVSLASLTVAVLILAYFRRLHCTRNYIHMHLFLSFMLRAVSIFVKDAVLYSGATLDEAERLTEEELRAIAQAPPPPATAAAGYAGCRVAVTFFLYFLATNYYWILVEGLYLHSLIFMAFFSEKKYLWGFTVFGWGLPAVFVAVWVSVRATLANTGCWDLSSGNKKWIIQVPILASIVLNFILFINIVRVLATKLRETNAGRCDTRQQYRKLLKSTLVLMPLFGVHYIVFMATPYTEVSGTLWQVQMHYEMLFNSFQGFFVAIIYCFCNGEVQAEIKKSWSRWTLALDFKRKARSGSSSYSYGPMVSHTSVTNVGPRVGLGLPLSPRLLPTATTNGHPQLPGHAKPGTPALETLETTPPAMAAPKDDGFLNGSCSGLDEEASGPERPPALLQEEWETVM

[1] = Pharmacokinetics in OVX rats; format: in vivo; settings: female, Crl:CD(SD), rat, plasma
Procedure: OVX was carried out in 32-week-old female Crl:CD (SD) rats (Charles River Laboratories). Twelve weeks after surgery, lumbar vertebral BMD (L3–L5) was measured in vivo by dual-energy X-ray absorptiometry (DXA) using a DCS-600EX-IIIR bone densitometer (Hitachi Aloka Medical), and the rats were divided into five groups, each with a similar mean value of BMD and body weight. Sample sizes were determined based on previous experiments with hPTHs and a published study with ibandronate and eldecalcitriol in our laboratories[42] (n=7–10). Then, OVX rats were treated once daily intravenously (vehicle or PCO371 at 3 or 10 mg kg^−1) or orally (vehicle or PCO371 at 30 mg kg^−1) or subcutaneously [vehicle or hPTH(1–34) at 0.9 nmol kg^−1] for 12 weeks. Ten to twelve OVX rats were assigned to each dose group. Nine rats were assigned to the sham-operated control group and were treated with vehicle for PCO371. Ten per cent DMSO (Wako Pure Chemical Industries)/10% Kolliphor EL (Sigma-Aldrich) in 10% hydroxypropyl-β-cyclodextrin (HPCD; Nihon Shokuhin Kako)/0.752% glycine (Wako Pure Chemical Industries) buffer was used as vehicle for PCO371, and phosphate-citrate buffer (pH 6.0) was used as vehicle for hPTH(1–34). To label bone-forming surfaces, tetracycline ([…], Nippon Zenyaku Kogyo) was subcutaneously injected on Day 78 and calcein (8 mg kg^−1, Dōjindo Laboratories) was subcutaneously injected on day 83. Under isoflurane anaesthesia, jugular vein blood was collected immediately before and at 1, 2, 6, 10 and 24 h after administration on day 82 to measure plasma concentration of PCO371 or on day 84 to measure serum Ca levels (o-CPC method, Wako Pure Chemical Industries). Urine was collected for 24 h from metabolic cages on days 84–85 to measure urinary collagen type 1 cross-linked C-telopeptide (CTX) by using the RatLaps ELISA System (Immunodiagnostic Systems). Under isoflurane anaesthesia, blood was collected on day 85 from the abdominal aorta to measure serum osteocalcin level by using the Rat Osteocalcin ELISA System (GE Healthcare). The lumbar spine and bilateral femurs were excised after 12 weeks of treatment. The first lumbar vertebra (L1), 3rd to 5th lumbar vertebrae (L3–L5), the right femur, and the right tibia were preserved in 70% ethanol to measure bone histomorphometry and BMD (DCS-600EX; Hitachi Aloka Medical). Measurement of bone histomorphometry was performed by the Ito Bone Histomorphometry Institute (Niigata, Japan). The second lumbar vertebra (L2) was wrapped in saline-soaked gauze and stored at −80 °C until measurement. Ultimate compressive strength (N) of the L2 vertebra was measured by using a mechanical testing machine (TK-252C; Muromachi Kikai).

Cc1cc(N2C(=O)NC(=O)C2(C)C)cc(C)c1CCS(=O)(=O)N1CCC2(CC1)N=C(c1ccc(OC(F)(F)F)cc1)NC2=O [PCO371, 1-{3,5-dimethyl-4-[2-({4-oxo-2-[4-(trifluoromethoxy)phenyl]-1,3,8-triazaspiro[4.5]dec-1-en-8-yl}sulfonyl)ethyl]phenyl}-5,5-dimethylimidazolidine-2,4-dione]
EC50 (hPTHR1-delNT): 2500 nM | AUC ([1]; iv, i.v. 3 mg kg-1): 15500 ng·h/mL | half-life ([1]; iv, i.v. 3 mg kg-1): 2.4 ± 0.2 h | AUC ([1]; iv, i.v. 10 mg kg-1): 48700 ng·h/mL | half-life ([1]; iv, i.v. 10 mg kg-1): 2.2 ± 0.2 h | AUC ([1]; po, p.o. 30 mg kg-1): 29500 ng·h/mL | Cmax ([1]; po, p.o. 30 mg kg-1): 95.6 ± 84.4 ng/mL | Tmax ([1]; po, p.o. 30 mg kg-1): 1.4 ± 0.8 h | half-life ([1]; po, p.o. 30 mg kg-1): 2.5 ± 0.3 h
